Test results: US20140205569A1, “METHODS AND COMPOSITIONS FOR PREVENTING AND TREATING OSTEOARTHRITIS” (priority 2010, published 2014)

Legend:
canine chondrocytes = experiment: Quantitative PCR expression of osteoarthritis-related genes in fatty-acid-enriched canine chondrocytes in alginate beads, stimulated with SMNCM; assay type: cell-based; conditions: fatty acid 50 μM, 3 weeks, 3rd week with 10% SMNCM; normalized to cyclophilin A; N=4
Description: Canine cartilage was digested in a 37° C. shaking water bath using the following enzymes: trypsin (0.25%) for 25 minutes, hyaluronidase (150U/ml) for 1 hour, and collagenase (0.78%) overnight. Digested cartilage was filtered to obtain chondrocytes. Chondrocytes were expanded in monolayer culture with complete media. Composition of the complete media is Dulbecco's Modified Eagle Medium (DMEM)/F12 supplemented with 10% FBS, 1% P/S (100 U/mL penicillin and 100 μg/mL streptomycin) and 50 μg/ml ascorbic acid. Reaching subconfluence, chondrocytes were detached with 0.05% trypsin and cryopreserved. After cryopreservation, canine chondrocytes were expanded in a monolayer and, after reaching subconfluence, cells were trypsinized and subsequently immobilized in alginate beads. Cells suspended in complete media +3% alginate were dropped from a 18-gauge syringe into calcium chloride (120 mM) to form “beads.” Chondrocyte beads were cultured in complete media and media was changed every 2 or 3 days. At the end of the treatment, the chondrocyte beads were dissolved in sodium citrate (55 mM in 0.15 M NaCl). Suspensions were centrifuged at 2620 rpm for 5 minutes. Cells were washed with phosphate buffer and centrifuged again at 2620 rpm for 5 minutes. One mL RNAqueous™ lysis binding solution (Ambion, Austin, Tex.) was added to the isolated canine chondrocyte pellet, mixed thoroughly and stored at −80° C. until RNA isolation could be performed.
Samples were vortexed and homogenized using a Quiashredder column (Qiagen, Valencia, Calif.) according to manufacturer's directions. The homogenized lysate was collected and 1 equal volume of 64% ethanol was added to it. This mixture was then applied to an RNAqueous™ filter cartridge, 700 uL at a time, and centrifuged for 1 minute at 10,000 rpm. The cartridge was washed using 700 uL wash solution #1 and 500 uL wash solution #2/3 with centrifugation at 10,000 rpm for 1 minute for each wash. The filter cartridge was dried by centrifugation (10,000 rpm) for 1 minute. RNA was eluted 3 times by centrifugation (as above) using 30 uL aliquots of 95-100° C. elution solution. The resulting RNA was DNAse-treated and quantitated in a Beckman DU 640B spectrophotometer (Beckman Coulter, Inc., Brea, Calif.) at 260 nm. Additionally, quantity and quality were assessed using a bioanalyzer (Agilent, Santa Clara, Calif.) according to manufacturer's directions.
Stimulated monocyte neutrophil conditioned media (SMNCM) was made by isolating monocytes and neutrophils from canine whole blood using NycoPrep™ according to the manufacturer's directions. Monocytes and neutrophils were stimulated with lipopolysaccharide (20 ng/mL) for 72 hours. The resulting supernatant was used as SMNCM in cell culture experimentation (SMNCM made up 10% of media used during experimentation and is kept in frozen aliquots).
Chondrocytes were enriched with a fatty acid at 50 μM just after they were enclosed in beads. FBS and ethanol were used as a vehicle. Once the enriched media were prepared, ethanol represented less than 0.1%. Cells were enriched with either arachidonic acid (AA) and dihomo-γ-linolenic acid for 3 weeks total in complete media. The 3rd week the enriched media also contained 10% stimulated monocyte neutrophil conditioned media (SMNCM). Chondrocyte beads were dissolved at the end of the experiment.
All samples were run singularly against each primer/probe set to determine what standard curve should be used. Standard curves were generated using serial dilutions of liver RNA or RNA from experimental samples. […] Values were normalized to cyclophilin A levels as determined by quantitative PCR. Inductions were calculated from each of the lowest sample's normalized value. N=4 for all treatments.
Values represent relative average induction values. […]

NF-kB = NF-kB activation measured as SEAP release in HT-29 clone 34 cells with or without rhTNF-alpha; assay type: cell-based; conditions: general statement of the discovery
Description: HT-29 clone 34 cells were seeded at 2.0×10^5 cells/well in DMEM with 5% FCS and 1% PS. Cells were incubated for 24 hours at 37° C. at 5% CO2 with or without rhTNF-alpha with dihomo-gamma-linolenic acid (0.1, 0.3, 0.5, 0.7 or 1 mg/ml) in ethanol as a vehicle. NF-kB activity was measured as SEAP release using a Phospha-Light™ System (Applied Biosystems, Bedford, Mass.) per manufacturer's directions.

Prostaglandin E2 (PGE2) = experiment: PGE2 levels in chondrocyte media by enzyme immunoassay, per cell; assay type: cell-based, canine; conditions: for PGE2 levels from chondrocyte media, Avg / PGE2 levels from chondrocyte media: fatty acid 50 μM; for PGE2 levels from chondrocyte media, Avg: average of four chondrocyte batches
Description: Canine cartilage was digested in a 37° C. shaking water bath using the following enzymes: trypsin (0.25%) for 25 minutes, hyaluronidase (150U/ml) for 1 hour, and collagenase (0.78%) overnight. Digested cartilage was filtered to obtain chondrocytes. Chondrocytes were expanded in monolayer culture with complete media. Composition of the complete media is Dulbecco's Modified Eagle Medium (DMEM)/F12 supplemented with 10% FBS, 1% P/S (100 U/mL penicillin and 100 μg/mL streptomycin) and 50 μg/ml ascorbic acid. Reaching subconfluence, chondrocytes were detached with 0.05% trypsin and cryopreserved. After cryopreservation, canine chondrocytes were expanded in a monolayer and, after reaching subconfluence, cells were trypsinized and subsequently immobilized in alginate beads. Cells suspended in complete media +3% alginate were dropped from a 18-gauge syringe into calcium chloride (120 mM) to form “beads.” Chondrocyte beads were cultured in complete media and media was changed every 2 or 3 days. At the end of the treatment, the chondrocyte beads were dissolved in sodium citrate (55 mM in 0.15 M NaCl). Suspensions were centrifuged at 2620 rpm for 5 minutes. Cells were washed with phosphate buffer and centrifuged again at 2620 rpm for 5 minutes. One mL RNAqueous™ lysis binding solution (Ambion, Austin, Tex.) was added to the isolated canine chondrocyte pellet, mixed thoroughly and stored at −80° C. until RNA isolation could be performed. Chondrocytes were enriched with a fatty acid at 50 μM just after they were enclosed in beads. FBS and ethanol were used as a vehicle. Once the enriched media were prepared, ethanol represented less than 0.1%. Cells were enriched with either arachidonic acid (AA) and dihomo-γ-linolenic acid for 3 weeks total in complete media. The 3rd week the enriched media also contained 10% stimulated monocyte neutrophil conditioned media (SMNCM). Chondrocyte beads were dissolved at the end of the experiment. Cell media was aliquoted in micro-centrifuge tubes and stored at −80° C. until analysis. Cells were enriched with either arachidonic acid (AA) and dihomo-γ-linolenic acid. Prostaglandin E2 (PGE2) levels were determined using Amersham Prostaglandin Prostaglandin E2 Biotrak Enzyme Immunoassay (EIA, GE Healthcare). Before performing the assay, media samples were thawed then diluted 50 to 250 times in assay buffer. Standards and samples were run in duplicate. The cell suspensions obtained after dissolving the alginate beads were centrifuged. After removing the supernatant, each cell pellet was resuspended in 1 ml of phosphate buffered saline. From each sample, 10 μL was added to the same volume of trypan blue stain before counting with a hemocytometer.

| SMILES | Quantitative PCR expression value 2252B (relative average induction) (canine chondrocytes) | Quantitative PCR expression value ADAMTS-4 (relative average induction) (canine chondrocytes) | Quantitative PCR expression value ADAMTS-5 (relative average induction) (canine chondrocytes) | Quantitative PCR expression value CYTL-1 (relative average induction) (canine chondrocytes) | Quantitative PCR expression value GRIA-4 (relative average induction) (canine chondrocytes) | Quantitative PCR expression value IGF-2 (relative average induction) (canine chondrocytes) | Quantitative PCR expression value IL-1 (relative average induction) (canine chondrocytes) | Quantitative PCR expression value IL-6 (relative average induction) (canine chondrocytes) | Quantitative PCR expression value IL-8 (relative average induction) (canine chondrocytes) | Quantitative PCR expression value MMP-2 (relative average induction) (canine chondrocytes) | Quantitative PCR expression value MMP-9 (relative average induction) (canine chondrocytes) | Quantitative PCR expression value MMP-13 (relative average induction) (canine chondrocytes) | Quantitative PCR expression value PC-2A (relative average induction) (canine chondrocytes) | Quantitative PCR expression value SOX-9 (relative average induction) (canine chondrocytes) | Quantitative PCR expression value TIMP-1 (relative average induction) (canine chondrocytes) | Quantitative PCR expression value TIMP-2 (relative average induction) (canine chondrocytes) | Quantitative PCR expression value TNF-alpha (relative average induction) (canine chondrocytes) | PGE2 levels from chondrocyte media, Avg (Prostaglandin E2 (PGE2)) | PGE2 levels from chondrocyte media (Prostaglandin E2 (PGE2); chondrocyte batch 1084) | PGE2 levels from chondrocyte media (Prostaglandin E2 (PGE2); chondrocyte batch 31010) | further results |
| --- | --- | --- | --- | --- | --- | --- | --- | --- | --- | --- | --- | --- | --- | --- | --- | --- | --- | --- | --- | --- | --- |
| CCCCC/C=C\C/C=C\C/C=C\CCCCCCC(=O)O [DGLA, dihomo-γ-linolenic acid] | 4.7 | 1.6 | 2.8 | 18.0 | 4.2 | 15.9 | 2.4 | 3.9 | 3.1 | 1.6 | 22.9 | 2.1 | 5.2 | 1.9 | 3.7 | 1.6 | 18.8 | 598 fg/ml/cell | 800 fg/ml/cell | 331 fg/ml/cell | Effect on NF-kB activation (in words) (NF-kB): inhibit NF-kB activation; PGE2 % Decrease (Prostaglandin E2 (PGE2); 50 μM DGLA versus 50 μM AA, chondrocyte batch 1084): 16%; PGE2 % Decrease (Prostaglandin E2 (PGE2); 50 μM DGLA versus 50 μM AA, chondrocyte batch 31010): 30%; PGE2 % Decrease (Prostaglandin E2 (PGE2); 50 μM DGLA versus 50 μM AA, chondrocyte batch 31510): 34%; PGE2 % Decrease (Prostaglandin E2 (PGE2); 50 μM DGLA versus 50 μM AA, chondrocyte batch 41210): 73%; PGE2 % Decrease, Avg (Prostaglandin E2 (PGE2); 50 μM DGLA versus 50 μM AA, from the batch averages): 58%; PGE2 levels from chondrocyte media (Prostaglandin E2 (PGE2); chondrocyte batch 31510): 182 fg/ml/cell; PGE2 levels from chondrocyte media (Prostaglandin E2 (PGE2); chondrocyte batch 41210): 1080 fg/ml/cell; Effect on inflammatory mediators (in words) (Prostaglandin E2 (PGE2); general statement of the discovery): reduce inflammatory mediators |
| CCCCC/C=C\C/C=C\C/C=C\C/C=C\CCCC(=O)O [AA, arachidonic acid, reference compound] | 4.3 | 1.4 | 3.0 | 18.1 | 5.0 | 14.7 | 4.1 | 4.8 | 3.0 | 1.8 | 9.5 | 2.7 | 4.5 | 1.9 | 3.5 | 1.6 | 26.4 | 1414 fg/ml/cell | 957 fg/ml/cell | 473 fg/ml/cell | PGE2 levels from chondrocyte media (Prostaglandin E2 (PGE2); chondrocyte batch 31510): 274 fg/ml/cell; PGE2 levels from chondrocyte media (Prostaglandin E2 (PGE2); chondrocyte batch 41210): 3950 fg/ml/cell |
